Activity calls are given as the source filed them. The rule behind the calls is not given here.
Experiments:
A549 [1] = assay: cells; type: functional, cell-based; details: Homo sapiens, A549, 48 h
Description: Anticancer activity against human A549 cells assessed as inhibition of cell growth measured for 48 hrs by MTT assay

HT-29 [2] = assay: cells; type: functional, cell-based; details: Homo sapiens, HT-29, 48 h
Description: Anticancer activity against human HT-29 cells assessed as inhibition of cell growth measured for 48 hrs by MTT assay

NCI-H1299 = assay: Anticancer activity against human NCI-H1299 cells assessed as reduction in cell viability at 10 to 40 uM incubated for 48 hrs by MTT assay; type: functional, cell-based; details: dose 10-40 µM
A549 [3] = assay: Anticancer activity against human A549 cells assessed as suppression of cell viability at 10 uM incubated for 48 hrs by MTT assay; type: functional, cell-based
HT-29 [4] = assay: Anticancer activity against human HT-29 cells assessed as suppression of cell viability at 10 uM incubated for 48 hrs by MTT assay; type: functional, cell-based
A549 [5] = assay: Anticancer activity against human A549 cells assessed as viable cells by measuring green fluorescence intensity measured for 48 hrs by Calcein AM staining based fluorescent microscopic analysis; type: functional, cell-based; details: dose 1-20 µM
HT-29 [6] = assay: Anticancer activity against human HT-29 cells assessed as viable cells by measuring green fluorescence intensity measured for 48 hrs by Calcein AM staining based fluorescent microscopic analysis; type: functional, cell-based; details: dose 1-20 µM
A549 [7] = assay: Inhibition of colony formation in human A549 cells at 250 to 500 nM measured for 10 days by crystal violet staining based analysis; type: functional, cell-based; details: dose 250-500 nM, time 10.0 day
HT-29 [8] = assay: Inhibition of colony formation in human HT-29 cells at 125 to 250 nM measured for 10 days by crystal violet staining based analysis; type: functional, cell-based; details: dose 125-250 nM, time 10.0 day
[9] = target: T1, Histone deacetylase (Homo sapiens) (UniProt Q13547+O15379+Q9UBN7+Q92769+Q9UQL6+Q8WUI4+Q9BY41+Q96DB2+P56524+Q9UKV0+Q969S8); assay: Inhibition of HDAC in human A549 cells incubated for 48 hrs by Western blot analysis; type: cell-based; details: dose 0.1-10 µM
[10] = target: T1, Histone deacetylase (Homo sapiens); assay: Inhibition of HDAC in human HT-29 cells incubated for 48 hrs by Western blot analysis; type: cell-based; details: dose 0.1-10 µM
[11] = target: T1, Histone deacetylase (Homo sapiens); assay: Inhibition of HDAC in human HT-29 cells assessed as increase in histone acetylation level at 2.5 to 5 uM incubated for 48 hrs by Western blot analysis; type: cell-based; details: dose 2.5-5 µM
[12] = target: T1, Histone deacetylase (Homo sapiens); assay: Inhibition of HDAC in human HT-29 cells assessed as increase in acetyl alpha-tubulin level at 2.5 to 5 uM incubated for 48 hrs by Western blot analysis; type: cell-based; details: dose 2.5-5 µM
HT-29 [13] = assay: Inhibition of cell migration in human HT-29 cells at 1.25 uM measured at 48 hrs by wound healing assay (reference value: 73.2%); type: functional
HT-29 [14] = assay: Inhibition of cell migration in human HT-29 cells assessed as upregulation of E-cadherin level at 2.5 to 5 uM incubated for 48 hrs by Western blot analysis; type: functional, cell-based; details: dose 2.5-5 µM
HT-29 [15] = assay: Inhibition of cell migration in human HT-29 cells assessed as downregulation of vimentin level at 2.5 to 5 uM incubated for 48 hrs by Western blot analysis; type: functional, cell-based; details: dose 2.5-5 µM
HT-29 [16] = assay: Inhibition of cell migration in human HT-29 cells assessed as downregulation of slug level at 2.5 to 5 uM incubated for 48 hrs by Western blot analysis; type: functional, cell-based; details: dose 2.5-5 µM
A549 [17] = assay: Induction of cell cycle arrest in human A549 cells assessed as accumulation at sub G1 at 5 to 10 uM incubated for 24 to 48 hrs by PI-staining based flow cytometric analysis; type: functional; details: dose 5-10 µM, time 24-48 hrs
A549 [18] = assay: Induction of apoptosis in human A549 cells assessed as increase in PARP level at 5 to 10 uM incubated for 48 hrs by Western blot analysis; type: functional, cell-based; details: dose 5-10 µM
A549 [19] = assay: Induction of apoptosis in human A549 cells assessed as increase in caspase 3 level at 5 to 10 uM incubated for 48 hrs by Western blot analysis; type: functional, cell-based; details: dose 5-10 µM
A549 [20] = assay: Induction of apoptosis in human A549 cells assessed as upregulation of p53 expression at 5 to 10 uM incubated for 48 hrs by Western blot analysis; type: functional, cell-based; details: dose 5-10 µM
A549 [21] = assay: Induction of cell cycle arrest in human A549 cells assessed as effect on p21 level at 5 to 10 uM incubated for 48 hrs by Western blot analysis; type: functional, cell-based; details: dose 5-10 µM
A549 [22] = assay: Induction of cell cycle arrest in human A549 cells assessed as effect on cyclin B1 level at 5 to 10 uM incubated for 48 hrs by Western blot analysis; type: functional, cell-based; details: dose 5-10 µM
A549 [23] = assay: Anticancer activity against human A549 cells cultured as 3D spheroids assessed as suppression of cell growth at 10 uM incubated for 48 hrs by celltiter-glo luminescent assay; type: functional, cell-based
HT-29 [24] = assay: Anticancer activity against human HT-29 cells cultured as 3D spheroids assessed as suppression of cell growth at 10 uM incubated for 48 hrs by celltiter-glo luminescent assay; type: functional, cell-based
[25] = Toxicity in zebrafish embryo assessed as hatching rate at 1 to 5 uM measured after 72 hrs post fertilization by microscopic analysis; design: species or system Danio rerio; details: in vivo, dose 1-5 µM
[26] = Toxicity in zebrafish embryo assessed as survival rate at 1 to 5 uM measured after 72 hrs post fertilization; design: species or system Danio rerio; details: in vivo, dose 1-5 µM
[27] = Toxicity in zebrafish embryo assessed as effect on body length at 1 to 5 uM measured after 96 hrs post fertilization by microscopic analysis; design: species or system Danio rerio; details: in vivo, dose 1-5 µM
[28] = Toxicity in zebrafish embryo assessed as formation of scoliosis at 1 to 5 uM measured after 96 hrs post fertilization by microscopic analysis; design: species or system Danio rerio; details: in vivo, dose 1-5 µM
[29] = Toxicity in zebrafish embryo assessed as yolk sac edema at 1 to 5 uM measured after 96 hrs post fertilization by microscopic analysis; design: species or system Danio rerio; details: in vivo, dose 1-5 µM
A549 [30] = assay: Inhibition of cell migration in human A549 cells at 2.5 uM measured at 24 hrs by wound healing assay (reference value: 68.4%); values are per cent of control; details: A549, 24 h
A549 [31] = assay: Inhibition of cell migration in human A549 cells at 2.5 uM measured at 48 hrs by wound healing assay (reference value: 42.3%); values are per cent of control; details: A549, 48 h
A549 [32] = assay: Inhibition of cell migration in human A549 cells at 2.5 uM measured immediately by wound healing assay (reference value: 100%); values are per cent of control
HT-29 [33] = assay: Inhibition of cell migration in human HT-29 cells at 1.25 uM measured at 24 hrs by wound healing assay (reference value: 85.7%); values are per cent of control; details: HT-29, 24 h
HT-29 [34] = assay: Inhibition of cell migration in human HT-29 cells at 1.25 uM measured immediately by wound healing assay (reference value: 100%); values are per cent of control

Q: What does the source list for Nc1ccccc1NC(=O)c1ccc(Cc2cn(S(=O)(=O)c3ccccc3)c3ccccc23)cc1?
A: IC50 (A549 [1]): 4.86 µM; IC50 (HT-29 [2]): 1.92 µM; Activity (NCI-H1299): Active; Activity (A549 [3]): Active; Activity (HT-29 [4]): Active; Activity (A549 [5]): Dose-Dependent Effect; Activity (HT-29 [6]): Dose-Dependent Effect; inhibition (A549 [7]): Active; inhibition (HT-29 [8]): Active; inhibition [9]: Active; inhibition [10]: Active; inhibition [11]: Active; inhibition [12]: Active; inhibition at 1.25 µM (HT-29 [13]): 82.1%; inhibition (HT-29 [14]): Active; inhibition (HT-29 [15]): Active; inhibition (HT-29 [16]): Active; Activity (A549 [17]): Active; Activity (A549 [18]): Active; Activity (A549 [19]): Active; Activity (A549 [20]): Active; Activity (A549 [21]): Active; Activity (A549 [22]): Active; Activity (A549 [23]): Active; Activity (HT-29 [24]): Active; Activity [25]: 100%; survival at 72 h, up to 5 µM [26]: ~100%; Activity [27]: Non-Toxic; Activity [28]: Non-Toxic; Activity [29]: Non-Toxic; wound area remaining at 2.5 µM (A549 [30]): 75.8%; wound area remaining at 2.5 µM (A549 [31]): 53.6%; wound area remaining at 2.5 µM (A549 [32]): 100%; wound area remaining at 1.25 µM (HT-29 [33]): 89.6%; wound area remaining at 1.25 µM (HT-29 [34]): 100%
